In the RepoRT retention time repository:

test: Agilent ZORBAX 300 SB-C18, 150 × 1 mm, 3.5 µm; A: water + 0.01% heptafluorobutyric acid; B: acetonitrile + 0.01% heptafluorobutyric acid; gradient (min/%B) 0/0 100/90; details: stereoisomer not certain

Row | LC retention time [min] | SMILES
1 | 10.6 | COc1ccc2cc3[n+](cc2c1OC)CCc1cc2c(cc1-3)OCO2
2 | 7.96 | Nc1nc(N)nc(Cc2ccccc2)n1
3 | 7.38 | O=C(O)CNC(=O)c1ccccc1
4 | 13.6 | Cc1ccc(C(=O)NCCc2c(C)[nH]c3ccccc23)cc1
5 | 8.16 | O=C(O)c1cc(-c2ccncc2)nc2ccccc12
6 | 10.2 | CCN(Cc1ccncc1)C(=S)NCCc1ccccc1
7 | 8.99 | Cc1ccc2nc3nc(C)cc(C)c3c(N)c2c1
8 | 13.8 | CCCCN1CNC(=S)N(CCc2ccccc2)C1
9 | 7.27 | c1ccc2ncccc2c1
10 | 10.1 | COc1ccc2c(=O)c(C)c(-c3ccccc3)oc2c1CN(C)C
11 | 9.35 | CCCNC(=O)c1ccccc1N
12 | 1.47 | O=c1cc[nH]c(=O)[nH]1
13 | 16.8 | Cc1ccc2[nH]c(-c3ccccc3)cc2c1
14 | 10.3 | CC(=O)Nc1ccc(C2=NNC(c3ccccc3)C2)cc1 (stereo not given)
15 | 17.8 | O=C(C1c2ccccc2Oc2ccccc21)N1CCCc2ccccc21
16 | 6.65 | c1cncc(-c2ncc[nH]2)c1
17 | 8.6 | c1ccc(CNc2ccccn2)cc1
18 | 1.56 | O=C1CCC(=O)N1c1ccc(S(=O)(=O)O)cc1
19 | 5.36 | Cn1c(=O)c2cc(S(=O)(=O)O)ccc2n(C)c1=O
20 | 10.9 | O=C(NN=Cc1cc2ccccc2[nH]1)c1ccccc1
21 | 11.2 | CN(C)CCCOc1nn(Cc2ccccc2)c2ccccc12
22 | 5.59 | NC(=O)CNc1ccc(C(N)=O)cc1
23 | 11.9 | Cc1ccc(C(=O)NCCn2cccc2)cc1
24 | 13.5 | Cc1cc(C(=O)N2CCCCC2)c2c(=O)n(CC(=O)N3CCc4ccccc43)c(=O)n(C)c2n1
25 | 16.7 | CC(Nc1ccc2ccccc2c1)C(=O)NN=Cc1cccc2ccccc12 (stereo not given)

Row | LC retention time [min] | SMILES
26 | 7.8 | NC1C(=O)Nc2ccccc21 (stereo not given)
27 | 6.51 | CNCCNC
28 | 5.5 | Cc1cc(C(=O)O)nc2ccccc12
29 | 11.3 | CCCCCn1c(CCC)nc2ccccc21
30 | 6.85 | Nc1cccc(C2=NCCN2)c1
31 | 3.51 | C#CCNC
32 | 8.26 | Cc1cccc(N(C)C)c1
33 | 8.48 | CC(=O)N1CCc2cc(C(=O)O)ccc21
34 | 9.63 | C=C(C)CC1C=CCC(CC(=C)C)N1 (stereo not given)
35 | 2.49 | NC1CC(CO)C(O)C1O (stereo not given)
36 | 9.74 | Nc1ccc2ncn(Cc3ccccc3)c(=O)c2c1
37 | 8.66 | Cc1cc(C)c(CO)cc1C=NNC(N)=O
38 | 13.1 | CC(C)NC(=O)c1ccc2ccccc2n1
39 | 8.43 | CC(C(=O)c1ccccc1)[n+]1ccccc1 (stereo not given)
40 | 13.1 | c1ccc(-c2ccc3ccccc3n2)cc1
41 | 7.29 | CN1CCCCC1=O
42 | 7.88 | O=C1NC2CCCCC2NC1CC(=O)N1CCN(Cc2ccccc2)CC1 (stereo not given)
43 | 6.01 | CCN(CC)CCCO
44 | 11.3 | COc1cc(CNC(=O)Nc2ccccc2)cc(OC)c1OC
45 | 13.8 | O=C(Oc1cccc2cccnc12)c1ccccc1
46 | 7.87 | Nc1ccc(C(=O)NC=C2CCCC2)cc1
47 | 9.96 | Nc1ccc(C=C(C(=O)O)c2ccccc2)cc1
48 | 14.2 | COc1ccc(NC(=O)c2ccc(C)cc2)c(OC)c1
49 | 6.64 | COC(=O)Cn1ncccc1=O
50 | 5.9 | Cn1c(=O)[nH]c(=O)n(C)c1=O

Row | LC retention time [min] | SMILES
51 | 16.2 | CCCCCCC=CC(C)=O
52 | 8.46 | Cc1ccc(CNC(C)(C)C)s1
53 | 11.1 | Cc1nc2ccccc2nc1N=C(N)NC(=O)c1ccccc1
54 | 11.6 | CCOC(=O)c1ccc(NC(=O)N2CCCC2)cc1
55 | 7.69 | Nc1nc2ccccc2[nH]1
56 | 11.9 | Cc1nc2ccccc2nc1CN1C(=O)C2CC=CCC2C1=O (stereo not given)
57 | 9.32 | C[N+]1(CCOCc2ccccc2)CC[N+](C)(CCOCc2ccccc2)CC1 (stereo not given)
58 | 1.96 | CNC(=O)NC
59 | 6.1 | CCc1ncc[nH]1
60 | 10.8 | CCCNC(=O)Nc1ccc(C(=O)OC)cc1
61 | 10.7 | CCCCCC[N+](C)(C)Cc1ccccc1
62 | 15.7 | CC1CCC(c2cn(C)c3ccccc23)C(=O)C1 (stereo not given)
63 | 6.06 | Cn1c2c(c(=O)n(C)c1=O)C(CC(=O)O)C(=O)N2 (stereo not given)
64 | 9.44 | CC1(C)CC(NC(=O)C(=O)NCCc2ccccc2)CC(C)(C)N1
65 | 8.32 | Cc1ccc2nc(C)[nH]c2c1
66 | 9.31 | Cn1c(=S)[nH]c2ccccc21
67 | 15.1 | c1ccc(-c2cc3cc4c(cc3[nH]2)OCO4)cc1
68 | 8.19 | CCC(C)N1CNc2c(c(=O)[nH]c(=O)n2Cc2ccccc2)C1 (stereo not given)
69 | 8.44 | O=c1cc(O)c2ccccc2[nH]1
70 | 7.92 | CC(=O)Nc1ccc(CCC(=O)O)cc1
71 | 9.5 | Cc1ccc(NC(=S)NC2CC(C)(C)NC(C)(C)C2)cc1
72 | 6.67 | O=C(O)C1(c2ccccc2)CCCCN1 (stereo not given)
73 | 9.07 | c1ccc2[nH]ncc2c1
74 | 12 | CCN(CC)C(=O)c1cc(C)nc2c1c(=O)n(CC(=O)Nc1ccccc1)c(=O)n2C
75 | 10.5 | CC(C)(C)C(=O)NNc1ccccc1

Row | LC retention time [min] | SMILES
76 | 7.03 | NCc1ccccc1CN
77 | 10.1 | CN1CCOC(c2ccccc2)c2ccccc2C1 (stereo not given)
78 | 14.4 | Cc1cccc(-n2c(C)cc(C=NNC(N)=S)c2C)c1C
79 | 8.37 | C(=NNc1nncc2ccccc12)c1cccnc1
80 | 14.5 | CC(C)(C)c1ccc(NC(=O)NCc2ccco2)cc1
81 | 7.05 | CCC(N)CC
82 | 13.7 | CN(C)c1ccc(C=C2Nc3ccccc3C2=O)cc1
83 | 10.7 | Cc1ccccc1C=NNC(N)=S
84 | 14.8 | CC(C)(C)c1ccc(C(=O)NCc2ccccc2)o1
85 | 16.3 | Cc1cccc(C(O)(C(=O)NN(C(=O)Nc2ccccc2)c2ccccc2)c2cccc(C)c2)c1
86 | 7.33 | Nc1ccc(N2CCOCC2)c(N)c1
87 | 13.5 | Cc1cc(C(=O)N2CCCCC2)c2c(=O)n(CC(=O)Nc3ccccc3)c(=O)n(-c3ccccc3)c2n1
88 | 6.12 | Nc1ccccn1
89 | 14.7 | COc1ccc(-c2cnc3ccccc3n2)cc1
90 | 9.72 | O=C(O)c1c(-c2ccccc2)c(-c2ccccc2)n[nH]c1=O
91 | 12 | CC(=O)c1cccc(N2C(=O)C3CCCCC3C2=O)c1 (stereo not given)
92 | 10.2 | Cn1cccc1C=NNC(=O)CCCC(=O)NN=Cc1cccn1C
93 | 7.67 | O=C(O)c1ccc2nccnc2c1
94 | 8.52 | CCNC(=O)c1ccc(CN2CCc3ccccc3C2)cc1
95 | 9.96 | CCCNC(=O)c1c[nH]c2ccccc12
96 | 7.09 | Cc1cc(=O)n(C)c(=O)n1CCCN1CCCC1
97 | 9.75 | O=C(NCCN1CCN(Cc2ccccc2)CC1)C(=O)Nc1ccccc1
98 | 7.47 | O=CN1CCCCC1
99 | 6.88 | CCOC(=O)C1CCC(=O)N1 (stereo not given)
100 | 4.24 | NC1CCOCC1

Row | LC retention time [min] | SMILES
101 | 17.1 | CCc1c(C)[nH]c(C(=O)OCc2ccccc2)c1C
102 | 10.2 | O=C(NN=Cc1ccc(O)c(O)c1)c1ccc(NC(=O)c2ccccc2)cc1
103 | 6.32 | CC(=O)Nc1cc(NC(C)=O)c(C)c(C(=O)O)c1
104 | 4.34 | Nc1cc(N)cc(C(=O)O)c1
105 | 6.83 | Cc1cc(=O)cc(C)n1C
106 | 12.5 | CC(=O)Nc1c(C)cc(C)cc1NC(=O)c1cc2ccccc2o1
107 | 7.95 | COC(=O)CC1CN=C(N2CCCCC2)NC1=O (stereo not given)
108 | 8.19 | c1cncc(-c2nc3ccccc3[nH]2)c1
109 | 7.89 | Oc1ccccc1N1CCCCC1
110 | 12.4 | CC1CCCCN1C(=O)c1ccccc1NC(=O)c1ccco1 (stereo not given)
111 | 7.49 | COC(=O)CCC1CCCNC1 (stereo not given)
112 | 8.31 | c1cncc(Cn2cccc2)c1
113 | 9.82 | CC1CCN(C(=O)c2ccc(N)cc2)CC1
114 | 11.2 | CC(C)(C)c1ccc(C(=O)NN=Cc2cccnc2)cc1
115 | 15.8 | CCN(CC)c1ccc(C(=O)NC(c2ccccc2)c2ccccc2)cc1
116 | 11.9 | c1ccc(-c2cnc(-c3ccncc3)o2)cc1
117 | 10.8 | Cc1nnc(Oc2ccccc2)c2ccccc12
118 | 17.5 | CCn1c2ccccc2c2ccccc21
119 | 10.4 | Cc1ccc(-c2cnc3ccccc3[n+]2C)c(C)c1
120 | 12.3 | O=C1NN=C(c2ccccc2)CC1c1c[nH]c2ccccc12 (stereo not given)
121 | 1.45 | Nc1cccc(S(=O)(=O)O)c1
122 | 6.48 | CC[N+](C)(CC)CC
123 | 5.72 | COCCCN
124 | 7.92 | CNC(C)c1ccccc1 (stereo not given)

Row | SMILES | LC retention time [min]
125 | NCCc1csc2c1CCCC2 | 9.41
126 | CCCCCCn1c2ccccc2c2cc(C(=O)O)ccc21 | 17.8
127 | CN1CCC23c4c5ccc(OC6OC(C(=O)O)C(O)C(O)C6O)c4OC2C(O)C=CC3C1C5 (stereo not given) | 6.59
128 | CC(C)(N)Cc1ccccc1 | 8.82
129 | COc1ccc(Cc2c(O)n(-c3ccccc3)c(=O)[nH]c2=O)c(OC)c1 | 11.6
130 | CC(=O)C=Cc1ccccc1 | 11.8
